Like-named read-outs stand apart in the source and are kept apart here. Numbered stars: 1 amine (or outer) side, 2 acyl side, 3 side chain; on linkers, the order of the positions; unused ones are H or OH. Bridge positions count the residues as written; N and C are the ends. Square brackets hold non-standard residues; d marks the D form. Peptide text beside a SMILES is read from it. * marks the point of attachment. Phe(4-CH2CH2COOH) = N[C@@H](Cc1ccc(CCC(=O)O)cc1)C(=O)O; Phe(3-CF3) = N[C@@H](Cc1cccc(C(F)(F)F)c1)C(=O)O; X8 = N=C(N)NCc1cccc(C[C@H](N[*:1])C(=O)[*:2])c1; Ala(morpholin-4-yl) = N[C@@H](CN1CCOCC1)C(=O)O; Phe(4-COOH) = N[C@@H](Cc1ccc(C(=O)O)cc1)C(=O)O; Phe(2-CF3) = N[C@@H](Cc1ccccc1C(F)(F)F)C(=O)O; Bip = N[C@@H](Cc1ccc(-c2ccccc2)cc1)C(=O)O; Abu(3R-NH2) = C[C@@H](N)[C@H](N)C(=O)O; Phe(3-Me) = Cc1cccc(C[C@H](N)C(=O)O)c1; Dap(CONH2) = NC(=O)NC[C@H](N)C(=O)O; Ala(cPr) = N[C@@H](CC1CC1)C(=O)O; hCha = N[C@@H](CCC1CCCCC1)C(=O)O; hPhe = N[C@@H](CCc1ccccc1)C(=O)O; 3Pal = N[C@@H](Cc1cccnc1)C(=O)O; Cha = N[C@@H](CC1CCCCC1)C(=O)O; Carboxymethyl = O=C(O)C*; NMeA = CN[C@@H](C)C(=O)O; Orn = NCCC[C@H](N)C(=O)O; Dab = NCC[C@H](N)C(=O)O
Legend:
[1] = molecular target: T1, Alexa fluor-647 labeled human PD-L1-Ig binding to Jurkat cell line over-expressing human PD-1 (Homo sapiens, UniProt Q15116); experiment: Jurkat-PD-1 Cell Binding High-Content Screening Assay (CBA): Method 3 (Alexa fluor-647 labeled PD-L1-Ig); conditions: Jurkat-PD-1 cells, Alexa fluor-647 labeled PD-L1-Ig 177 nM
T1 construct: expressed in transfected cells; host or cells: Jurkat
T1 sequence (Q15116 25-288): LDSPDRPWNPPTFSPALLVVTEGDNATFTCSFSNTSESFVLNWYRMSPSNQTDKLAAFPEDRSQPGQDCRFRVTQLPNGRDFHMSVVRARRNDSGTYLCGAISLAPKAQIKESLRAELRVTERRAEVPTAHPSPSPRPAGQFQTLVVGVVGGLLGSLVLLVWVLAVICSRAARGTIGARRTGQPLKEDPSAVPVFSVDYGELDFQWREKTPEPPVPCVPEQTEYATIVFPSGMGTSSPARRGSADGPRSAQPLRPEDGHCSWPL
Outline: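 Jurkat cells over-expressing human PD-1 in RPMI/10% FCS were preincubated 2 h at 37 °C with compound, then exposed 1 h to Alexa fluor-647 labeled human PD-L1-Ig (177 nM final). Cells fixed in 4% paraformaldehyde with Hoechst 33342 and binding quantified by high-content imaging.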

[2] = molecular target: T2, PD1-PDL1 protein-protein binding interaction [hPD1(25-167)-hIgG, hPD-L1 (19-239)-6xHis] (Homo sapiens, UniProt Q15116); experiment: HTRF Assay (TR-FRET); conditions: 5 nM hPD1-hIgG, 5 nM hPD-L1-6xHis, 24 hours at 25° C., head μM
T2 construct: hPD1(25-167)-hIgG, BMS
T2 sequence (Q15116 25-167): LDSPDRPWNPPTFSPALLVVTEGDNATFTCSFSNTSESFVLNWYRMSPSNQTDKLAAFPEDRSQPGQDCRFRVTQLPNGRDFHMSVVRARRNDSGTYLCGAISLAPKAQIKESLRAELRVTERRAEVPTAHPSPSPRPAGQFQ
Description: A time-resolved fluorescence resonance energy transfer (TR-FRET) assay was employed to measure the inhibition of the PD1-PDL1 protein-protein binding interaction. The reaction buffer was prepared by mixing the HiBlock buffer and LANCE detection buffer (PerkinElmer, TRF1011F and CR97-100) at a 1:1 ratio. Assay reactions contained 5 nM human programmed cell death 1 [hPD1(25-167)-hIgG, BMS], 5 nM human programmed cell death ligand 1 [hPD-L1 (19-239)-6×His, BMS], in the presence of 1 nM LANCE Eu-W1024 Anti-Human IgG (Eu-anti hIgG, PerkinElmer, AD0074) and 20 nM SureLight Allophycocyanin-anti-6×His antibody (APC-anti-6×His, PerkinElmer, AD0059H). Test compounds were evaluated in a 10-point dose-response format with serial three-fold dilutions starting from a 2 uM top concentration. Reactions were carried out in a total volume of 10 uL in 384-well microtiter plates (Proxiplate white, PerkinElmer, 6008289). Plates were sealed and incubated for 24 hours at 25° C. After 24 hours, the TR-FRET signal was measured using a PerkinElmer EnVision multimode plate reader and the resulting ratiometric data set (signal at 665 nm/615 nm, multiplied by a factor of 10,000) was recorded. The concentration giving half-maximal inhibition (the IC50) was obtained by fitting the data to a four-parameter logistic equation using Graphpad Prism or Dotmatics.

Row | SMILES | IC50 ([1]; nM, read-out: CBA Method 3) [nM] | IC50 [2] [µM] | IC50 ([1]; head μM, read-out: CBA Method 3 μM) [nM]
1 | CC(C)C[C@H]1NC(=O)[C@H](C)N(C)C(=O)[C@H](CCC(N)=O)NC(=O)[C@H](Cc2ccc(-c3ccccc3)cc2)NC(=O)[C@H](CCc2ccccc2)NC(=O)[C@H](Cc2cccc(C(F)(F)F)c2)NC(=O)[C@H](CC(=O)O)NC(=O)[C@H](Cc2ccc(O)cc2)NC(=O)[C@H]([C@@H](C)N)NC(=O)CSC[C@@H](C(=O)N[C@@H](CCN)C(N)=O)NC(=O)[C@H](CCCN)NC(=O)[C@H](C(C)C)NC(=O)[C@H](CC2CCCCC2)NC(=O)[C@H](CCN)NC1=O [Example 5236] ({CH2CO}-[Abu(3R-NH2)]YD[Phe(3-CF3)][hPhe][Bip]Q[NMeA][dL][Dab][Cha]V[Orn]C[Dab]-NH2; thioether N-14) | 1.1 | 0.1 | 
2 | Cc1cccc(C[C@@H]2NC(=O)[C@H](CC(=O)O)NC(=O)[C@H](Cc3ccc(OCC(=O)O)cc3)NC(=O)[C@H](Cc3ccccc3C(F)(F)F)NC(=O)CSC[C@@H](C(=O)N[C@@H](CCN)C(N)=O)NC(=O)[C@H](CCCN)NC(=O)[C@H](C(C)C)NC(=O)[C@H](CC3CCCCC3)NC(=O)[C@H](CCN)NC(=O)[C@@H](CC(C)C)NC(=O)[C@H](C)N(C)C(=O)[C@H](CCC(N)=O)NC(=O)[C@H](Cc3ccc(-c4ccccc4)cc3)NC(=O)[C@H](Cc3ccc(C(=O)O)cc3)NC2=O)c1 [Example 5292] ({CH2CO}-[Phe(2-CF3)]Y(Carboxymethyl)D[Phe(3-Me)][Phe(4-COOH)][Bip]Q[NMeA][dL][Dab][Cha]V[Orn]C[Dab]-NH2; thioether N-14) | 0.2 | 0.03 | 
3 | Cc1cccc(C[C@@H]2NC(=O)[C@H](CC(=O)O)NC(=O)[C@H](Cc3ccc(OCC(=O)O)cc3)NC(=O)[C@H](CCC3CCCCC3)NC(=O)CSC[C@@H](C(=O)N[C@@H](CCN)C(N)=O)NC(=O)[C@H](CCCN)NC(=O)[C@H](C(C)C)NC(=O)[C@H](CC3CCCCC3)NC(=O)[C@H](CCN)NC(=O)[C@@H](CC(C)C)NC(=O)[C@H](C)N(C)C(=O)[C@H](CCC(N)=O)NC(=O)[C@H](Cc3ccc(-c4ccccc4)cc3)NC(=O)[C@H](Cc3ccc(C(=O)O)cc3)NC2=O)c1 [Example 5186] ({CH2CO}-[hCha]Y(Carboxymethyl)D[Phe(3-Me)][Phe(4-COOH)][Bip]Q[NMeA][dL][Dab][Cha]V[Orn]C[Dab]-NH2; thioether N-14) | 4.5 | 0.03 | 
4 | Cc1cccc(C[C@@H]2NC(=O)[C@H](CC(=O)O)NC(=O)[C@H](Cc3ccc(CCC(=O)O)cc3)NC(=O)[C@H](CNC(N)=O)NC(=O)CSC[C@@H](C(=O)N[C@@H](CCN)C(N)=O)NC(=O)[C@H](CCCN)NC(=O)[C@H](C(C)C)NC(=O)[C@H](CC3CCCCC3)NC(=O)[C@H](CCN)NC(=O)[C@@H](CC(C)C)NC(=O)[C@H](C)N(C)C(=O)[C@H](CCC(N)=O)NC(=O)[C@H](Cc3ccc(-c4ccccc4)cc3)NC(=O)[C@H](Cc3ccc(C(=O)O)cc3)NC2=O)c1 [Example 5298] ({CH2CO}-[Dap(CONH2)][Phe(4-CH2CH2COOH)]D[Phe(3-Me)][Phe(4-COOH)][Bip]Q[NMeA][dL][Dab][Cha]V[Orn]C[Dab]-NH2; thioether N-14) | 0.5 | 0.01 | 
5 | Cc1cccc(C[C@@H]2NC(=O)[C@H](CC(=O)O)NC(=O)[C@H](Cc3ccc(OCC(=O)O)cc3)NC(=O)[C@H](CN3CCOCC3)NC(=O)CSC[C@@H](C(=O)N[C@@H](CCN)C(N)=O)NC(=O)[C@H](CCC(N)=O)NC(=O)[C@H](C(C)C)NC(=O)[C@H](CC3CCCCC3)NC(=O)[C@H](CCN)NC(=O)[C@@H](CC(C)C)NC(=O)[C@H](C)N(C)C(=O)[C@H](CCC(N)=O)NC(=O)[C@H](Cc3ccc(-c4ccccc4)cc3)NC(=O)[C@H](CCc3ccccc3)NC2=O)c1 [Example 5221] ({CH2CO}-[Ala(morpholin-4-yl)]Y(Carboxymethyl)D[Phe(3-Me)][hPhe][Bip]Q[NMeA][dL][Dab][Cha]VQC[Dab]-NH2; thioether N-14) | 3 | 0.01 | 
6 | CC(C)C[C@H]1NC(=O)[C@H](C)N(C)C(=O)[C@H](CCC(N)=O)NC(=O)[C@H](Cc2ccc(-c3ccccc3)cc2)NC(=O)[C@H](CCc2ccccc2)NC(=O)[C@H](Cc2cccc(C(F)(F)F)c2)NC(=O)[C@H](CC(=O)O)NC(=O)[C@H](Cc2ccc(OCC(=O)O)cc2)NC(=O)[C@H](CN2CCOCC2)NC(=O)CSC[C@@H](C(=O)N[C@@H](CCN)C(N)=O)NC(=O)[C@H](CCC(=O)O)NC(=O)[C@H](C(C)C)NC(=O)[C@H](CC2CCCCC2)NC(=O)[C@H](CCN)NC1=O [Example 5211] ({CH2CO}-[Ala(morpholin-4-yl)]Y(Carboxymethyl)D[Phe(3-CF3)][hPhe][Bip]Q[NMeA][dL][Dab][Cha]VEC[Dab]-NH2; thioether N-14) |  | 0.04 | 10
7 | Cc1cccc(C[C@@H]2NC(=O)[C@H](CC(=O)O)NC(=O)[C@H](Cc3ccc(OCC(=O)O)cc3)NC(=O)[C@H](Cc3cccc(CNC(=N)N)c3)NC(=O)CSC[C@@H](C(=O)N[C@@H](CCN)C(N)=O)NC(=O)[C@H](CCCN)NC(=O)[C@H](C(C)C)NC(=O)[C@H](CC3CCCCC3)NC(=O)[C@H](CCN)NC(=O)[C@@H](CC(C)C)NC(=O)[C@H](C)N(C)C(=O)[C@H](CCC(N)=O)NC(=O)[C@H](Cc3ccc(-c4ccccc4)cc3)NC(=O)[C@H](Cc3ccc(C(=O)O)cc3)NC2=O)c1 [Example 5279] ({CH2CO}-[X8]Y(Carboxymethyl)D[Phe(3-Me)][Phe(4-COOH)][Bip]Q[NMeA][dL][Dab][Cha]V[Orn]C[Dab]-NH2; thioether N-14) | 3 | 0.015 | 
8 | CC(C)C[C@H]1NC(=O)[C@H](C)N(C)C(=O)[C@H](CCC(N)=O)NC(=O)[C@H](Cc2ccc(-c3ccccc3)cc2)NC(=O)[C@H](Cc2ccc(OCC(=O)O)cc2)NC(=O)[C@H](Cc2cccc(C(F)(F)F)c2)NC(=O)[C@H](CC(=O)O)NC(=O)[C@H](Cc2ccc(O)cc2)NC(=O)[C@H](CN2CCOCC2)NC(=O)CSC[C@@H](C(=O)N[C@@H](CCN)C(N)=O)NC(=O)[C@H](CCCN)NC(=O)[C@H](C(C)C)NC(=O)[C@H](CC2CCCCC2)NC(=O)[C@H](CCN)NC1=O [Example 5237] ({CH2CO}-[Ala(morpholin-4-yl)]YD[Phe(3-CF3)]Y(Carboxymethyl)[Bip]Q[NMeA][dL][Dab][Cha]V[Orn]C[Dab]-NH2; thioether N-14) | 4.4 | 0.03 | 
9 | Cc1cccc(C[C@@H]2NC(=O)[C@H](CC(=O)O)NC(=O)[C@H](Cc3ccc(OCC(=O)O)cc3)NC(=O)[C@H](CC3CC3)NC(=O)CSC[C@@H](C(=O)N[C@@H](CCN)C(N)=O)NC(=O)[C@H](CCCN)NC(=O)[C@H](C(C)C)NC(=O)[C@H](CC3CCCCC3)NC(=O)[C@H](CCN)NC(=O)[C@@H](CC(C)C)NC(=O)[C@H](C)N(C)C(=O)[C@H](CCC(N)=O)NC(=O)[C@H](Cc3ccc(-c4ccccc4)cc3)NC(=O)[C@H](Cc3ccc(C(=O)O)cc3)NC2=O)c1 [Example 5185] ({CH2CO}-[Ala(cPr)]Y(Carboxymethyl)D[Phe(3-Me)][Phe(4-COOH)][Bip]Q[NMeA][dL][Dab][Cha]V[Orn]C[Dab]-NH2; thioether N-14) | 2.3 | 0.01 | 
10 | CC(C)C[C@H]1NC(=O)[C@H](C)N(C)C(=O)[C@H](CCC(N)=O)NC(=O)[C@H](Cc2ccc(-c3ccccc3)cc2)NC(=O)[C@H](CCc2ccccc2)NC(=O)[C@H](Cc2cccc(C(F)(F)F)c2)NC(=O)[C@H](CC(=O)O)NC(=O)[C@H](Cc2ccc(O)cc2)NC(=O)[C@H](CN2CCOCC2)NC(=O)CSC[C@@H](C(=O)N[C@@H](CCN)C(N)=O)NC(=O)[C@H](CCCN)NC(=O)[C@H](C(C)C)NC(=O)[C@H](CC2CCCCC2)NC(=O)[C@H](CCN)NC1=O [Example 5235] ({CH2CO}-[Ala(morpholin-4-yl)]YD[Phe(3-CF3)][hPhe][Bip]Q[NMeA][dL][Dab][Cha]V[Orn]C[Dab]-NH2; thioether N-14) | 3.6 | 0.03 | 
11 | CC(C)C[C@H]1NC(=O)[C@H](C)N(C)C(=O)[C@H](CCC(N)=O)NC(=O)[C@H](Cc2ccc(-c3ccccc3)cc2)NC(=O)[C@H](CCc2ccccc2)NC(=O)[C@H](Cc2cccc(C(F)(F)F)c2)NC(=O)[C@H](CC(=O)O)NC(=O)[C@H](Cc2cccnc2)NC(=O)[C@H]([C@@H](C)N)NC(=O)CSC[C@@H](C(=O)N[C@@H](CCN)C(N)=O)NC(=O)[C@H](CCCN)NC(=O)[C@H](C(C)C)NC(=O)[C@H](CC2CCCCC2)NC(=O)[C@H](CCN)NC1=O [Example 5244] ({CH2CO}-[Abu(3R-NH2)][3Pal]D[Phe(3-CF3)][hPhe][Bip]Q[NMeA][dL][Dab][Cha]V[Orn]C[Dab]-NH2; thioether N-14) | 6.4 | 0.03 | 
